Measurements published in publication PMC3948918 (PLoS ONE, 2014).
Read-outs that look alike come from different tables or passages of the source. Numbered stars: 1 amine (or outer) side, 2 acyl side, 3 side chain; on linkers, the order of the positions; unused ones are H or OH. Bridge positions count the residues as written; N and C are the ends. Square brackets hold non-standard residues; d marks the D form. Peptide text beside a SMILES is read from it. Adda = CO[C@@H](Cc1ccccc1)[C@@H](C)/C=C(C)/C=C/[C@H](N[*:1])[C@H](C)C(=O)[*:2]; dAsp(3S-Me) = C[C@H](C(=O)[*:3])[C@@H](N[*:1])C(=O)[*:2]; d(γGlu) = O=C(O)[C@@H](CCC(=O)[*:2])N[*:1]; NMeDha = C=C(NC)C(=O)O

Columns and labels:
[1] = test system: OATP1B1- and OATP1B3-expressing HeLa or RKO cell lines
[2] = test system: OATP1B1-expressing HeLa cells; details: read-out: IC50 HeLa B1
HeLa Control cells [3] = details: read-out: IC50 HeLa Control
[4] = test system: OATP1B1-expressing RKO cells; details: read-out: IC50 RKO B1
[5] = test system: OATP1B3-expressing RKO cells
[6] = test system: OATP1B3-expressing HeLa cells; details: for IC50: read-out: IC50 HeLa B3
OATP1B1 = test: in vitro; details: human
[7] = test system: OATP1B3-expressing HeLa cells; details: cited from earlier work
HeLa Control cells [8] = details: cited from earlier work
[9] = test system: OATP1B1-expressing HeLa cells; details: cited from earlier work

SMILES	transporter selectivity (in words) [1]	IC50 [2]	IC50 (HeLa Control cells [3])	IC50 (RKO control cells; read-out: IC50 RKO control)	IC50 [4]	Ratio IC50 B1/B3 RKO [5]	IC50 ([5]; read-out: IC50 RKO B3)	Ratio IC50 B1/B3 HeLa [6]	IC50 [6]	further results
C=C1C(=O)N[C@H](C)C(=O)N[C@@H](CC(C)C)C(=O)N[C@@H](C(=O)O)[C@H](C)C(=O)N[C@@H](CCCNC(=N)N)C(=O)N[C@@H](/C=C/C(C)=C/[C@H](C)[C@H](Cc2ccccc2)OC)[C@H](C)C(=O)N[C@@H](C(=O)O)CCC(=O)N1C [compound 1, MC-LR, reference compound] (R[Adda][d(γGlu)][NMeDha][dA]L[dAsp(3S-Me)]-OH; lactam N-7)	least OATP1B3 selective	1 nM	> 1000 nM	> 1000 nM	8.2 nM	0.3	26.9 nM	0.2	5.1 nM	–
C=C1C(=O)N[C@H](C)C(=O)N[C@@H](CC(C)C)C(=O)N[C@@H](C(=O)O)CC(=O)N[C@@H](CCCNC(=N)N)C(=O)N[C@@H](/C=C/C(C)=C/[C@H](C)[C@H](Cc2ccccc2)OC)[C@H](C)C(=O)N[C@@H](C(=O)O)CCC(=O)N1C [compound 2, [D-Asp^3]MC-LR]	least OATP1B3 selective	–	–	> 1000 nM	7.3 nM	0.2	31.3 nM	–	–	–
C=C1C(=O)N[C@H](C)C(=O)N[C@@H](CC(C)CC)C(=O)N[C@@H](C(=O)O)CC(=O)N[C@@H](CCCNC(=N)N)C(=O)N[C@@H](/C=C/C(C)=C/[C@H](C)[C@H](Cc2ccccc2)OC)[C@H](C)C(=O)N[C@@H](C(=O)O)CCC(=O)N1C (stereo partly drawn) [compound 3, [D-Asp^3]MC-HilR]	least OATP1B3 selective	–	–	–	–	0.4	–	–	–	IC50 (RKO control cells; 3 h): > 1000 nM; IC50 (OATP1B1): 57 nM; IC50 ([5]; human): 142 nM
C/C=C1/NC(=O)CC[C@H](C(=O)O)NC(=O)[C@@H](C)[C@H](/C=C/C(C)=C/[C@H](C)[C@H](Cc2ccccc2)OC)NC(=O)[C@H](CCCNC(=N)N)NC(=O)C[C@H](C(=O)O)NC(=O)[C@H](CC(C)CC)NC(=O)[C@@H](C)NC1=O (stereo partly drawn) [compound 4, [D-Asp^3,(E)-Dhb^7]MC-HilR]	most OATP1B3 selective	–	–	–	–	15.0	–	–	–	IC50 (RKO control cells; 3 h): 993 nM; IC50 (OATP1B1): 56.9 nM; IC50 ([5]; human): 3.8 nM
C=C1C(=O)N[C@H](C)C(=O)N[C@@H](CC(C)C)C(=O)N[C@@H](C(=O)O)[C@H](C)C(=O)N[C@@H](Cc2ccc(O)cc2)C(=O)N[C@@H](/C=C/C(C)=C/[C@H](C)[C@H](Cc2ccccc2)OC)[C@H](C)C(=O)N[C@@H](C(=O)O)CCC(=O)N1C [compound 5, MC-LY] (Y[Adda][d(γGlu)][NMeDha][dA]L[dAsp(3S-Me)]-OH; lactam N-7)	least OATP1B3 selective	0.16 nM	> 10 nM	–	–	–	–	0.8	0.21 nM	IC50 values (potency grouping) [1]: sub-nanomolar
C/C=C1/NC(=O)CC[C@H](C(=O)O)NC(=O)[C@@H](C)[C@H](/C=C/C(C)=C/[C@H](C)[C@H](Cc2ccccc2)OC)NC(=O)[C@H](Cc2ccc(O)cc2)NC(=O)C[C@H](C(=O)O)NC(=O)[C@H](CC(C)C)NC(=O)[C@@H](C)NC1=O [compound 6, [D-Asp^3,(E)-Dhb^7]MC-LY]	weakly OATP1B3 selective	0.47 nM	> 10 nM	–	–	–	–	2.6	0.18 nM	IC50 values (potency grouping) [1]: sub-nanomolar
C=C1C(=O)N[C@H](C)C(=O)N[C@@H](CC(C)C)C(=O)N[C@@H](C(=O)O)[C@H](C)C(=O)N[C@@H](Cc2c[nH]c3ccccc23)C(=O)N[C@@H](/C=C/C(C)=C/[C@H](C)[C@H](Cc2ccccc2)OC)[C@H](C)C(=O)N[C@@H](C(=O)O)CCC(=O)N1C [compound 8, LW, reference compound] (W[Adda][d(γGlu)][NMeDha][dA]L[dAsp(3S-Me)]-OH; lactam N-7)	weakly OATP1B3 selective	0.22 nM	> 1000 nM	> 1000 nM	0.4 nM	1.4	0.29 nM	1.4	0.16 nM	IC50 values (potency grouping) [1]: sub-nanomolar
C/C=C1/NC(=O)CC[C@H](C(=O)O)NC(=O)[C@@H](C)[C@H](/C=C/C(C)=C/[C@H](C)[C@H](Cc2ccccc2)OC)NC(=O)[C@H](Cc2c[nH]c3ccccc23)NC(=O)C[C@H](C(=O)O)NC(=O)[C@H](CC(C)C)NC(=O)[C@@H](C)NC1=O [compound 9, [D-Asp^3,(E)-Dhb^7]-MC-LW]	weakly OATP1B3 selective	–	–	> 1000 nM	11 nM	1.4	7.7 nM	–	–	–
C=C1C(=O)N[C@H](C)C(=O)N[C@@H](CCCNC(=N)N)C(=O)N[C@@H](C(=O)O)[C@H](C)C(=O)N[C@@H](Cc2ccccc2)C(=O)N[C@@H](/C=C/C(C)=C/[C@H](C)[C@H](Cc2ccccc2)OC)[C@H](C)C(=O)N[C@@H](C(=O)O)CCC(=O)N1C [compound 12, MC-RF] (F[Adda][d(γGlu)][NMeDha][dA]R[dAsp(3S-Me)]-OH; lactam N-7)	most OATP1B3 selective	–	–	> 1000 nM	58.3 nM	17.2	3.38 nM	–	–	–
C=C1C(=O)N[C@H](C)C(=O)N[C@@H](Cc2ccc(O)cc2)C(=O)N[C@@H](C(=O)O)CC(=O)N[C@@H](CCCNC(=N)N)C(=O)N[C@@H](/C=C/C(C)=C/[C@H](C)[C@H](Cc2ccccc2)OC)[C@H](C)C(=O)N[C@@H](C(=O)O)CCC(=O)N1C [compound 14, [D-Asp^3]MC-YR]	–	–	–	> 1000 nM	149 nM	3.1	48 nM	–	–	–
C/C=C1/NC(=O)CC[C@H](C(=O)O)NC(=O)[C@@H](C)[C@H](/C=C/C(C)=C/[C@H](C)[C@H](Cc2ccccc2)OC)NC(=O)[C@H](CCCNC(=N)N)NC(=O)C[C@H](C(=O)O)NC(=O)[C@H](Cc2ccc(O)cc2)NC(=O)[C@@H](C)NC1=O [compound 15, [D-Asp^3,(E)-Dhb^7]MC-YR]	most OATP1B3 selective	–	–	> 1000 nM	108 nM	4.0	27.1 nM	–	–	–
C=C1C(=O)N[C@H](C)C(=O)N[C@@H](CCCNC(=N)N)C(=O)N[C@@H](C(=O)O)[C@H](C)C(=O)N[C@@H](Cc2ccc(O)cc2)C(=O)N[C@@H](/C=C/C(C)=C/[C@H](C)[C@H](Cc2ccccc2)OC)[C@H](C)C(=O)N[C@@H](C(=O)O)CCC(=O)N1C [compound 16, MC-RY] (Y[Adda][d(γGlu)][NMeDha][dA]R[dAsp(3S-Me)]-OH; lactam N-7)	most OATP1B3 selective	77 nM	> 1000 nM	–	–	–	–	30.8	2.5 nM	–
C=C1C(=O)N[C@H](C)C(=O)N[C@@H](Cc2ccc(O)cc2)C(=O)N[C@@H](C(=O)O)[C@H](C)C(=O)N[C@@H](Cc2ccc(O)cc2)C(=O)N[C@@H](/C=C/C(C)=C/[C@H](C)[C@H](Cc2ccccc2)OC)[C@H](C)C(=O)N[C@@H](C(=O)O)CCC(=O)N1C [compound 17, MC-YY] (Y[Adda][d(γGlu)][NMeDha][dA]Y[dAsp(3S-Me)]-OH; lactam N-7)	–	1.5 nM	259 nM	–	–	–	–	1.9	0.8 nM	IC50 values (potency grouping) [1]: sub-nanomolar
C/C=C1/NC(=O)CC[C@H](C(=O)O)NC(=O)[C@@H](C)[C@H](/C=C/C(C)=C/[C@H](C)[C@H](Cc2ccccc2)OC)NC(=O)[C@H](Cc2c[nH]c3ccccc23)NC(=O)C[C@H](C(=O)O)NC(=O)[C@H](CCc2ccc(O)cc2)NC(=O)[C@@H](C)NC1=O [compound 20, [D-Asp^3,(E)-Dhb^7]MC-HtyW]	–	–	–	–	–	1.9	–	–	–	IC50 (RKO control cells; 3 h): > 100 nM; IC50 (OATP1B1): 4.9 nM; IC50 ([5]; human): 2.57 nM
CO[C@@H](Cc1ccccc1)[C@@H](C)/C=C(C)/C=C/[C@@H]1NC(=O)[C@H](CCCCNC(=N)N)NC(=O)C[C@H](C(=O)O)NC(=O)[C@H](Cc2ccc(O)cc2)NC(=O)[C@@H](C)NC(=O)[C@H](CO)N(C)C(=O)CC[C@H](C(=O)O)NC(=O)[C@H]1C [compound 21, [D-Asp^3,MSer^7]MC-YHar]	–	–	–	–	–	1.6	–	–	–	IC50 ([1]; human): > 100 nM; IC50 (RKO control cells; 3 h): > 1000 nM; IC50 (OATP1B1): 625 nM; IC50 ([5]; human): 385 nM
C=C1C(=O)N[C@H](C)C(=O)N[C@@H](Cc2ccc(O)cc2)C(=O)N[C@@H](C(=O)O)[C@H](C)C(=O)N[C@@H](CCCNC(=N)N)C(=O)N[C@@H](/C=C/C(C)=C/[C@H](C)[C@H](Cc2ccccc2)OC)[C@H](C)C(=O)N[C@@H](C(=O)OC)CCC(=O)N1C [compound 22, [D-Glu(OMe)^6]MC-YR]	–	–	–	> 1000 nM	595 nM	2.6	227 nM	–	–	IC50 ([1]; read-out: IC50 values (potency grouping)): > 100 nM
CC=C1C(=O)N[C@@H](C(=O)O)[C@H](C)C(=O)N[C@@H](CCCNC(=N)N)C(=O)N[C@@H](/C=C/C(C)=C/[C@H](C)[C@H](Cc2ccccc2)OC)[C@H](C)C(=O)N[C@@H](C(=O)O)CCC(=O)N1C [compound 23, Nodularin]	–	8.4 nM	> 100 nM	> 100 nM	10 nM	< 0.1	> 100 nM	< 0.1	> 100 nM	–
C=C1[C@@H](O)[C@@H]2O[C@]3(CC[C@H](/C=C/[C@@H](C)[C@@H]4CC(C)=C[C@@]5(O[C@H](C[C@@](C)(O)C(=O)O)CC[C@H]5O)O4)O3)CC[C@H]2O[C@@H]1[C@@H](O)C[C@H](C)[C@H]1O[C@@]2(CCCCO2)CC[C@H]1C [compound 24, okadaic acid]	–	–	–	–	–	–	–	–	–	IC50 [7]: 3 nM; Ratio IC50 B1/B3 HeLa [7]: 0.7; IC50 (HeLa Control cells [8]): 7.8 nM; IC50 [9]: 2.2 nM
